Data taken from article PMC4656118 (Journal of biomolecular screening, 2014).

Tests used:
[1] = target: N-LANA peptide binding to nucleosomes (histones H2A/H2B) (Gallus gallus, UniProt P02263+P0C1H3); assay: biochemical; parameters: species or system chicken; conditions: for Identified as hit in pilot screen (Z score < −2 for both replicates): pilot screen of known bioactives; for Scored positive for inhibition in HTS at ICCB-L/NSRB: 49,810 small molecules screened in duplicate, Z score
salmon sperm DNA = assay: Counterscreen to detect DNA intercalators; assay type: binding; conditions: for DNA intercalation (competition with acridine orange): pilot screen hits at increasing concentrations; for Competition with acridine orange for DNA intercalation (acridine orange mP values): assay validation, increasing concentration, monensin up to 1uM
[2] = target: GST LANA1-23 binding to nucleosomes (Gallus gallus, UniProt P02263+P0C1H3); assay: ELISA, inhibition of GST LANA1-23 binding to nucleosomes; parameters: species or system chicken; conditions: increasing concentrations of competitor or compound

Row | Compound | Confirmation of inhibitory activity by FP ([1]; pilot screen hits retested at increasing concentrations) | Identified as hit in pilot screen (Z score < −2 for both replicates) [1] | DNA intercalation (competition with acridine orange) (salmon sperm DNA) | Competition with acridine orange for DNA intercalation (acridine orange mP values) (salmon sperm DNA) | IC50 [1] [µM] | Scored positive for inhibition in HTS at ICCB-L/NSRB [1] | Inhibition of GST LANA1-23 binding to nucleosomes by ELISA [2] | Inhibition of LANA 1-23 binding to nucleosomes ([1]; negative control for HTS)
1 | CC[C@@]1(O)C(=O)OCc2c1cc1n(c2=O)Cc2cc3cc(O)ccc3nc2-1 [10-HCT, 10-hydroxycamptothecin] | could not be confirmed | identified | inconsistently competed |  |  |  |  | 
2 | CC[n+]1c(-c2ccccc2)c2cc(N)ccc2c2ccc(N)cc21 [EtBr, ethidium bromide] |  |  |  | reduced acridine orange mP values |  |  |  | 
3 | O=C1c2c(O)ccc(O)c2C(=O)c2c(NCCNCCO)ccc(NCCNCCO)c21 [MTX, mitoxantrone] |  | identified | scored positive for DNA intercalation | reduced acridine orange mP values | < 25 | scored positive | inhibitory activity | 
4 | CC[C@@]1([C@@H]2O[C@@H]([C@H]3O[C@@](O)(CO)[C@H](C)C[C@@H]3C)C[C@@H]2C)CC[C@H]([C@]2(C)CC[C@]3(C[C@H](O)[C@@H](C)[C@@H]([C@@H](C)[C@@H](OC)[C@H](C)C(=O)O)O3)O2)O1 [Monensin, monensin] |  |  |  | negligible effect |  |  |  | did not inhibit
5 | CC[N+](C)(CC)CCC[n+]1c(-c2ccccc2)c2cc(N)ccc2c2ccc(N)cc21.[I-].[I-] [PI, propidium iodide] |  |  |  | reduced acridine orange mP values |  |  |  | 
6 | COc1cccc2c1C(=O)c1c(O)c3c(c(O)c1C2=O)C[C@@](O)(C(C)=O)C[C@@H]3O[C@H]1C[C@H](N)[C@H](O)[C@H](C)O1 [daunorubicin] |  | identified | scored positive for DNA intercalation |  |  | scored positive |  | 
7 | COc1cccc2c1C(=O)c1c(O)c3c(c(O)c1C2=O)C[C@@](O)(C(=O)CO)C[C@@H]3O[C@H]1C[C@H](N)[C@H](O)[C@H](C)O1 [doxorubicin] |  | identified | scored positive for DNA intercalation |  | < 25 | scored positive | inhibitory activity | 
